In data set [1] the test system is patients afflicted with a progressive form of multiple sclerosis (PPMS, SPMS, PRMS). Description: Phase III clinical trial of oral laquinimod in progressive forms of multiple sclerosis (Example 1). The conditions noted are these: daily oral 0.6 mg, 0.9 mg, 1.2 mg and 1.8 mg. The format is in vivo, human. The source says: 3-5 Years (2-4 years recruitment duration). Progressive Forms of Multiple Sclerosis, including Primary Progressive Multiple sclerosis (PPMS) and Secondary Progressive Multiple Sclerosis (SPMS). […] Matching placebo for laquinimod arm: matching placebo for laquinimod administered once daily. Approximately 140-240 sites and approximately 1300-2300 subjects. Inclusion Criteria • 1. Subjects must be 25-65 years old. • 2. Subjects must have a confirmed and documented diagnosis of Primary Progressive (according to McDonald), Progressive-Relapsing or Secondary Progressive (clinical definition, without relapses in the previous year) Multiple Sclerosis disease course. • 3. Subjects must be ambulatory with converted Kurtzke EDSS score of 3.0-6.5. • 4. Subjects must have a Pyramidal Functional Systems (FS) score of ≧2. • 5. Subjects must have a threshold Timed 25-Foot Walk ([…]) score. Exclusion Criteria • 1. Subjects with RRMS. • 2. Subjects with clinically significant or unstable medical or surgical condition that would preclude safe and complete study participation, as determined by medical history, physical examination, ECG, laboratory tests or chest X-ray. • 3. […] Confirmed disability progression at 3 and 6 months. This study assesses the efficacy of various daily doses of laquinimod as compared to placebo in multiple sclerosis subjects.

In data set [2] the test system is patients afflicted with PPMS. In words: Phase II clinical trial of laquinimod in Primary Progressive Multiple Sclerosis subjects (Example 2). The format is in vivo, human. The settings on record: daily oral 0.6 mg, 1.0 mg and 1.5 mg. The method, then:
Study Duration • Screening phase: Up to 1 month • Treatment Phase: At least 15 months
Subjects with Primary Progressive Multiple Sclerosis (approximately 500 subjects in approximately 120 centers, with about 125 subjects per study arm).
Investigational Product Route and Dosage Form • 1. […] Placebo arm: Three capsules containing placebo (0.5/0.6 mg matching) to be administered orally once daily.
Eligible subjects are randomized in a 1:1:1:1 ratio into one of the following treatment arms: • 1. […] Matching placebo
Subjects that stopped treatment with the study drug before the completion of Month 12 visit are considered Early Treatment Discontinuation (ETD) subjects. ETD subjects continue follow-up according to scheduled visits (until Month 12).
Subjects have the following study visits: Screening visit (−1 Month), Baseline visit (Month 0), and Months 1, 2, 3, 6, 9, 12, and every three months until study termination.
The following assessments are performed at the specified time points: • 1. Vital signs are measured at each study visit. • 2. A physical examination is performed at months −1, 0, 1, 3, 6 and every 6 months thereafter, ETD (if applicable), and until study completion. • 3. The following safety clinical laboratory tests are performed: • a. Complete blood count (CBC) with differential at all scheduled visits. • b. Serum chemistry (including electrolytes, liver enzymes, urea, creatinine, glucose, total protein, albumin, direct and total bilirubin, Creatinephosphokinase (CPK), serum conventional C-reactive protein (CRP), fibrinogen and pancreatic amylase)—at all scheduled visits. Calculated Glomerular Filtration Rate (GFR) at screening and prior to each MRI scan. • c. Lipid profile (total cholesterol, HDL, LDL, triglycerides)—at baseline (month 0) and every 12 months until completion/ETD. • d. Serum TSH, T3 and Free T4 at baseline (month 0), month 6 and every 12 months until completion/ETD. • e. Urinalysis at the screening visit. • f. Serum human choriogonadotropin beta (β-hCG) in women of child-bearing potential is performed at each scheduled study visit. • g. Urine β-hCG test is performed in women of child-bearing potential at baseline (month 0) and at each scheduled study visit thereafter. • h. Starting after visit Month 3 a β-hCG test is performed in women of child-bearing potential every 28 (±2) days. In case of suspected pregnancy the study drug is discontinued. • 4. Additional blood for analysis of serology for Hepatitis B and C viruses at baseline visit • 5. […] ECG is performed at months −1 (screening), 0 (baseline, three recordings 10 min apart, before first dose), 1, 2, 3, 6, 12 and every 12 months until completion/ETD. • 8. Chest X-ray is performed at month −1, (if not performed within 6 months prior to the screening visit). • 9. Adverse Events (AEs) are monitored throughout the study. • 10. Concomitant Medications are monitored throughout the study. • 11. All subjects—conventional MRI scans with gadolinium at Months 0 (14 to 7 days before Baseline), and 12. In case of ETD, or completion, an additional MRI is performed, provided no study MRI was done within the previous 3 months. • 12. In case of steroid treatment, study MRI is performed before such treatment or delayed to allow a minimum of 14 days but not more than 28 days from the completion of the steroid course. • 13. All subjects—MRI including 3D T1-w acquisitions of the brain and cervical cord, to measure whole brain volume, cord atrophy, thalamic atrophy, cortical atrophy and white matter (WM) atrophy at Months 0 (Baseline), 12 or ETD (if applicable). • 14. Neurological evaluations, including Expanded Disability Status Scale (EDSS), Timed 25-Foot Walk (T25FW)/9-Hole Peg test (9HPG), Ambulation Index (AI), Functional systems (FS), are performed at months −1, 0, and every 3 months thereafter, ETD visit (if applicable) and until completion visit. • 15. […]

In data set [3] the test system is patients having Relapsing-Remitting Multiple Sclerosis (RRMS). The settings on record: cited from earlier work.
The subject of data set [4] is genes related to antigen presentation and corresponding inflammatory pathways. The conditions noted are these: mainly via the NFkB pathway; cited from earlier work.
For data set [5] the following is noted: in vivo; cited from earlier work.

Take `CCN(C(=O)c1c(O)c2c(Cl)cccc2n(C)c1=O)c1ccccc1` [laquinimod]: the “accumulation of physical disability” value in data set [1] (PPMS, vs placebo control group) is “reduces the accumulation of physical disability”; in data set [1] (PPMS, vs the patient at baseline), “reduces the accumulation of physical disability”; in data set [1] (PRMS, vs placebo control group), “reduces the accumulation of physical disability”; in data set [1] (PRMS, vs the patient at baseline), “reduces the accumulation of physical disability”; in data set [1] (SPMS, vs placebo control group), “reduces the accumulation of physical disability”; in data set [1] (SPMS, vs the patient at baseline) it was “reduces the accumulation of physical disability”. Besides, the “accumulation of physical disability” value is given as “reduces the accumulation of physical disability” in data set [1] (progressive form of multiple sclerosis, vs placebo control group); “reduces the accumulation of physical disability” in data set [1] (progressive form of multiple sclerosis, vs the patient at baseline); “reduces the accumulation of physical disability” in data set [2] (vs placebo control group); “reduces the accumulation of physical disability” in data set [2] (vs the patient at baseline). Further, the “brain atrophy (percentage change in brain volume from Baseline to month 12)” value in data set [2] (vs placebo control group) and in data set [2] (vs the patient at baseline) was “reduces brain atrophy” each time. Moreover, the cognitive function entry in data set [2] (vs placebo control group) and in data set [2] (vs the patient at baseline) was “improves cognitive function” throughout. In addition, the “cumulative number of new T2 lesions” value in data set [2] (vs placebo control group) and in data set [2] (vs the patient at baseline) was “reduces the cumulative number of new T2 lesions” throughout. Besides, the “EDSS progression of disability” value in data set [3] (RRMS patients) is listed as “consistently reduced EDSS progression of disability”. In addition, the brain atrophy result in data set [3] (RRMS patients) was “reduced brain atrophy”. For the same compound, the “non-conventional MRI metrics” value in data set [3] (RRMS patients) is on record as “increased non-conventional MRI metrics suggestive of preservation of tissue architecture”. Also, the “safety and tolerability profile” value in data set [3] (two phase III trials, relapsing-remitting multiple sclerosis patients) was “favorable safety and tolerability profile”. Besides, the “suppression of genes related to antigen presentation” value in data set [4] is “induced suppression of genes related to antigen presentation and corresponding inflammatory pathways”. Also, the oral bioavailability entry in data set [5] is listed as “high”.

(Values after patent US20180064702A1 (Teva Pharmaceutical Industries, Ltd., priority 2013, published 2018).)
